# Measurements from article PMC10468695, “The coenzyme B12 precursor 5,6-dimethylbenzimidazole is a flavin antagonist in Salmonella” (Microbial Cell, 2023).
# Molecular target: T1, NAD(P)H:flavin reductase (Fre) (Salmonella enterica, UniProt Q9L6L9)
# T1 construct: tag-less Fre (H6 tag cleaved by rTEV)
# T1 sequence (Q9L6L9 2-233): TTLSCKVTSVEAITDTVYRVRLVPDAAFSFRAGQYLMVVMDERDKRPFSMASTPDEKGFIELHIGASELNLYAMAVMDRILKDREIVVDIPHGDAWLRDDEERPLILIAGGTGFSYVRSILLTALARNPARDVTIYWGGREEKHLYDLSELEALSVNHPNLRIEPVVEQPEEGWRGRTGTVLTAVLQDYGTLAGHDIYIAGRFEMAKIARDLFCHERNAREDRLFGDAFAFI
# Assay: NADH oxidation assay at […] nm with purified Fre; competitive inhibition fit versus FMN
# Assay type: biochemical
structure (smiles),measurement,value
"Cc1cc2nc[nH]c2cc1C [DMB, 5,6-dimethylbenzimidazole]",Ki,1900 µM
